How the values were obtained:
[1] = target: T1, human muscarinic M3 receptor (Homo sapiens (Human), UniProt P20309); assay: Binding assay on human muscarinic M3 receptor ([3H]-methyl scopolamine displacement); conditions: membranes overexpressing human M3 receptor, Ki from IC50 by Cheng-Prusoff, read-out: Binding Affinity to M3 Receptor, Ki
Outline: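 Displacement of [3H]-methyl scopolamine from membranes overexpressing human M3, in Tris-HCl, 25 °C, 120 min; filter-bound radioactivity counted. Nonspecific binding with 5 μM atropine; Ki from IC50 via Cheng-Prusoff.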

[2] = target: T1, human muscarinic M3 receptor; assay: Antagonism assay on human muscarinic M3 receptor (carbachol-induced intracellular calcium, FLIPR Calcium 5, transfected Cos-7 cells); type: cell-based; conditions: functional inhibitory constant; carbachol-induced intracellular calcium in Cos-7 cells transfected with human M3 receptor
Protocol: [Experimental Example 2] Antagonism Assay on Human Muscarinic M3 Receptor
The antagonism assay for various compounds of the present invention was conducted on antagonism to human M3 receptor in Cos-7 cells that was transfected with plasmid coding human muscarinic M3 receptor. Test compounds in various concentrations were pre-treated to the cells for 3 minutes, and then the changes of intracellular calcium were measured after treating the same with carbachol (i.e. muscarinic receptor agonist). The FLIPR® Calcium 5 assay (Molecular Devices) and Flex3 device (Molecular Devices) were used to measure concentration of calcium. Amounts of calcium before and after carbachol treatment were set as 0% and 100% respectively. Inhibition rates (%) by the compounds for increase in intracellular calcium by carbachol were calculated. The antagonistic potency of the test compounds on human muscarinic M3 receptor was calculated as the functional inhibitory constant (Ki), which can be calculated from concentration (IC50) of compound inhibiting 50% of activity of carbachol according to Cheng and Prusoff equation.

T1 sequence (P20309 whole entry): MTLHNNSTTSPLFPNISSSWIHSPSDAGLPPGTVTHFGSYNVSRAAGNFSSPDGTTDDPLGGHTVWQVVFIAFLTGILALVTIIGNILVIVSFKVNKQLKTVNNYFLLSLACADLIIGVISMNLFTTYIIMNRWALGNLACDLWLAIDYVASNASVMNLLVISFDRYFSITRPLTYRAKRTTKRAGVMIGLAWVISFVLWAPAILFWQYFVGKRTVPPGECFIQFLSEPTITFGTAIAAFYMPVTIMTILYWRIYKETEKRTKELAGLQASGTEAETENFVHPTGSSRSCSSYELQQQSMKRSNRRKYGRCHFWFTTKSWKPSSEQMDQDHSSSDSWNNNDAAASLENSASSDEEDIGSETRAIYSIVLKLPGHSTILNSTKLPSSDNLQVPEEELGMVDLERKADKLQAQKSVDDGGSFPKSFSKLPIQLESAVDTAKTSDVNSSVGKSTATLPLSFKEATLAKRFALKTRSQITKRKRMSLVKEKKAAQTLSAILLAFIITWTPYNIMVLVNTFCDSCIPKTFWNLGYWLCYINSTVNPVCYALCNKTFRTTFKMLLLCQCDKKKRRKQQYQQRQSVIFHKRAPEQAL

In the case of `CN1CC[C@@H](COC(=O)Nc2ccccc2-c2cc(F)cc(Cl)c2)C1` [Example 132, (R)-(1-methylpyrrolidin-3-yl)methyl(3′-chloro-5′-fluoro-[1,1′-biphenyl]-2-yl)carbamate], the Ki [1] is reported as 4.64 nM and the Ki [2] is reported as 0.75 nM.

`CN1CC[C@@H](COC(=O)Nc2ccc(F)cc2-c2ccc(F)cc2)C1` [Example 141, (R)-(1-methylpyrrolidin-3-yl)methyl(4′,5-difluoro-[1,1′-biphenyl]-2-yl)carbamate] was tested, and the Ki [1] was 7.57 nM and the Ki [2] was 0.35 nM.

Molecule `CN1CCC[C@H]1COC(=O)Nc1ccccc1-c1cc(Cl)ccc1F` [Example 190, (S)-(1-methylpyrrolidin-2-yl)methyl(3′-chloro-6′-fluoro-[1,1′-biphenyl]-2-yl)carbamate] has a Ki [1] of 2.17 nM and a Ki [2] of 0.95 nM.

For `CN1CCCC1CCOC(=O)Nc1ccc(F)cc1-c1ccc(F)c(F)c1` (stereo not drawn) [Example 42, 2-(1-methylpyrrolidin-2-yl)ethyl(3′,4′,5-trifluoro-[1,1′-biphenyl]-2-yl)carbamate], the Ki [1] was 9.21 nM and the Ki [2] was 1.19 nM.

In the case of `CN1CCCC1CCOC(=O)Nc1ccccc1-c1ccc(F)cc1F` (stereo not drawn) [Example 183, 2-(1-Methylpyrrolidin-2-yl)ethyl (2′,4′-difluoro-[1,1′-biphenyl]-2-yl)carbamate], the Ki [1] is reported as 18.9 nM and the Ki [2] is reported as 2.57 nM.

`CN1CCC[C@H]1COC(=O)Nc1ccccc1-c1ccc(F)cc1F` [Example 188, (S)-(1-methylpyrrolidin-2-yl)methyl(2′,4′-difluoro-[1,1′-biphenyl]-2-yl)carbamate] was tested, and the Ki [1] was 13.7 nM and the Ki [2] was 2.23 nM.

Work on `COc1ccc(NC(=O)OC[C@@H]2CCCN2C)c(-c2cc(Cl)cc(Cl)c2)c1` [Example 226, (S)-(1-methylpyrrolidin-2-yl)methyl (3′,5′-dichloro-5-methoxy-[1,1′-biphenyl]-2-yl)carbamate] yielded a Ki [1] of 16.7 nM and a Ki [2] of 4.99 nM.

Work on `CN1CC[C@@H](COC(=O)Nc2ccccc2-c2ccccc2F)C1` [Example 156, (R)-(1-methylpyrrolidin-3-yl)methyl(2′-fluoro-[1,1′-biphenyl]-2-yl)carbamate] yielded a Ki [1] of 10.6 nM and a Ki [2] of 1.15 nM.

Work on `CN1CCCC1CCOC(=O)Nc1ccc(C(F)(F)F)cc1-c1ccc(F)cc1` (stereo not drawn) [Example 48, 2-(1-Methylpyrrolidin-2-yl)ethyl(4′-fluoro-5-(trifluoromethyl)-[1,1′-biphenyl]-2-yl)carbamate] yielded a Ki [1] of 258 nM.

With `COc1ccc(-c2ccccc2NC(=O)OCCC2CCCN2C)cc1` (stereo not drawn) [Example 5, 2-(1-methylpyrrolidin-2-yl)ethyl(4′-methoxy-[1,1′-biphenyl]-2-yl)carbamate] the Ki [1] was 1100 nM.

Molecule `CN1CCCC1CCOC(=O)Nc1ccccc1-c1cccc(C(F)(F)F)c1` (stereo not drawn) [Example 12, 2-(1-methylpyrrolidin-2-yl)ethyl(3′-trifluoromethyl-[1,1′-biphenyl]-2-yl)carbamate] has a Ki [1] of 88 nM.

`CCOc1cccc(-c2ccccc2NC(=O)OCCC2CCCN2C)c1` (stereo not drawn) [Example 16, 2-(1-methylpyrrolidin-2-yl)ethyl(3′-ethoxy-[1,1′-biphenyl]-2-yl)carbamate] was tested, and the Ki [1] was 1060 nM.

With `CN1CC[C@@H](COC(=O)Nc2ccc(F)cc2-c2cc(Cl)cc(C(F)(F)F)c2)C1` [Example 140, (R)-(1-methylpyrrolidin-3-yl)methyl(3′-chloro-5-fluoro-5′-(trifluoromethyl)-[1,1′-biphenyl]-2-yl)carbamate] the Ki [1] was > 1000 nM.

For `CN1CCC[C@H]1COC(=O)Nc1ccc(F)cc1-c1ccc(Cl)cc1` [Example 175, (S)-(1-methylpyrrolidin-2-yl)methyl (4′-chloro-5-fluoro-[1,1′-biphenyl]-2-yl)carbamate], the Ki [1] was 22.5 nM.

In the case of `CN1CCC[C@H]1COC(=O)Nc1ccccc1-c1ccc(Cl)cc1` [Example 164, (S)-(1-methylpyrrolidin-2-yl)methyl(4′-chloro-[1,1′-biphenyl]-2-yl)carbamate], the Ki [1] is reported as 36.9 nM.

In the case of `CN1CCC[C@H]1COC(=O)Nc1ccc(F)cc1-c1cccc(C#N)c1` [Example 178, (S)-(1-methylpyrrolidin-2-yl)methyl (3′-cyano-5-fluoro-[1,1′-biphenyl]-2-yl)carbamate], the Ki [1] is reported as > 1000 nM.

With `COc1ccc(-c2ccccc2)c(NC(=O)OCCC2CCCN2C)c1` (stereo not drawn) [Example 25, 2-(1-methylpyrrolidin-2-yl)ethyl(4-methoxy-[1,1′-biphenyl]-2-yl)carbamate] the Ki [1] was 115 nM.

For `CN1CCCC1CCOC(=O)Nc1ccccc1-c1cccc(F)c1F` (stereo not drawn) [Example 184, 2-(1-Methylpyrrolidin-2-yl)ethyl(2′,3′-difluoro-[1,1′-biphenyl]-2-yl)carbamate], the Ki [1] was 63.5 nM.

With `CN1CCC[C@H]1COC(=O)Nc1ccc(F)cc1-c1ccc(C(C)(C)C)cc1` [Example 209, (S)-(1-methylpyrrolidin-2-yl)methyl (4′-(tert-butyl)-5-fluoro-[1,1′-biphenyl]-2-yl)carbamate] the Ki [1] was > 1000 nM.

For `CN1CCCC1CCOC(=O)Nc1ccccc1-c1cccc(CCCO)c1` (stereo not drawn) [Example 29, 2-(1-methylpyrrolidin-2-yl)ethyl(3′-(3-hydroxypropyl)-[1,1′-biphenyl]-2-yl)carbamate], the Ki [1] was 931 nM.

For `CN1CCCC1CCOC(=O)Nc1ccc(O)cc1-c1cc(F)cc(F)c1` (stereo not drawn) [Example 75, 2-(1-methylpyrrolidin-2-yl)ethyl (3′,5′-difluoro-5-hydroxy-[1,1′-biphenyl]-2-yl)carbamate], the Ki [1] was 471 nM.

`CN1CC[C@H](COC(=O)Nc2ccc(F)cc2-c2ccc(Cl)cc2)C1` [Example 127, (S)-(1-methylpyrrolidin-3-yl)methyl(4′-chloro-5-fluoro-[1,1′-biphenyl]-2-yl)carbamate] gave a Ki [1] of 69.4 nM.

`CN1CC[C@@H](COC(=O)Nc2ccccc2-c2cc(Cl)cc(C(F)(F)F)c2)C1` [Example 138, (R)-(1-methylpyrrolidin-3-yl)methyl(3′-chloro-5′-(trifluoromethyl)-[1,1′-biphenyl]-2-yl)carbamate] was tested, and the Ki [1] was > 1000 nM.

With `COc1ccc(NC(=O)OCCC2CCCN2C)c(-c2cccc(Cl)c2)c1` (stereo not drawn) [Example 63, 2-(1-methylpyrrolidin-2-yl)ethyl(3′-chloro-5-methoxy-[1,1′-biphenyl]-2-yl)carbamate] the Ki [1] was 58.1 nM.

`CN1CCCC1CCOC(=O)Nc1ccccc1-c1ccc(OC(F)(F)F)cc1` (stereo not drawn) [Example 10, 2-(1-methylpyrrolidin-2-yl)ethyl(4′-trifluoromethoxy-[1,1′-biphenyl]-2-yl)carbamate] was tested, and the Ki [1] was 401 nM.

Work on `Cc1cc(C)cc(-c2cc(F)ccc2NC(=O)OC[C@@H]2CCCN2C)c1` [Example 208, (S)-(1-methylpyrrolidin-2-yl)-methyl(5-fluoro-3′,5′-dimethyl-[1,1′-biphenyl]-2-yl)-carbamate] yielded a Ki [1] of 110 nM.

With `CN1CCC[C@H]1COC(=O)Nc1ccccc1-c1cccc(O)c1` [Example 168, (S)-(1-methylpyrrolidin-2-yl)methyl(3′-hydroxy-[1,1′-biphenyl]-2-yl)carbamate] the Ki [1] was 22.9 nM.

In the case of `CN1CCCC1CCOC(=O)Nc1ccc(Cl)cc1-c1cc(Cl)cc(Cl)c1` (stereo not drawn) [Example 71, 2-(1-Methylpyrrolidin-2-yl)ethyl (3′,5,5′-trichloro-[1,1′-biphenyl]-2-yl)carbamate], the Ki [1] is reported as 134 nM.

`CN1CCCC1CCOC(=O)Nc1ccc(C(F)(F)F)cc1-c1ccccc1` (stereo not drawn) [Example 47, 2-(1-Methylpyrrolidin-2-yl)ethyl(5-(trifluoromethyl)-[1,1′-biphenyl]-2-yl)carbamate] was tested, and the Ki [1] was 136 nM.

Molecule `CN1CC[C@@H](COC(=O)Nc2ccccc2-c2cccc(O)c2)C1` [Example 137, (R)-(1-methylpyrrolidin-3-yl)methyl(3′-hydroxy-[1,1′-biphenyl]-2-yl)carbamate] has a Ki [1] of 27 nM.

`Cc1ccc(-c2ccccc2NC(=O)OCCC2CCCN2C)cc1F` (stereo not drawn) [Example 14, 2-(1-methylpyrrolidin-2-yl)ethyl((3′-fluoro-4′-methyl)-[1,1′-biphenyl]-2-yl)carbamate] showed a Ki [1] of 12.4 nM.

Molecule `Cc1ccc(NC(=O)OC[C@@H]2CCCN2C)c(-c2ccccc2)c1` [Example 206, (S)-(1-methylpyrrolidin-2-yl)methyl(5-methyl-[1,1′-biphenyl]-2-yl)carbamate] has a Ki [1] of 7.32 nM.

With `COc1cc(Cl)cc(-c2cc(F)ccc2NC(=O)OC[C@@H]2CCN(C)C2)c1` [Example 139, (R)-(1-methylpyrrolidin-3-yl)methyl(3′-chloro-5-fluoro-5′-methoxy-[1,1′-biphenyl]-2-yl)carbamate] the Ki [1] was 82.7 nM.

`CN1CCC[C@H]1COC(=O)Nc1ccc(F)cc1-c1ccc(Cl)c(F)c1` [Example 212, (S)-(1-methylpyrrolidin-2-yl)methyl(4′-chloro-3′,5-difluoro-[1,1′-biphenyl]-2-yl)carbamate] was tested, and the Ki [1] was > 1000 nM.

With `CN1CCC[C@H]1COC(=O)Nc1ccccc1-c1cc(F)cc(F)c1` [Example 161, (S)-(1-methylpyrrolidin-2-yl)methyl(3′,5′-difluoro-[1,1′-biphenyl]-2-yl)carbamate] the Ki [1] was 8.92 nM.

With `CCN1CC[C@H](COC(=O)Nc2ccccc2-c2cccc(C)c2)C1` [Example 105, (S)-(1-ethylpyrrolidin-3-yl)methyl (3′-methyl-[1,1′-biphenyl]-2-yl)carbamate] the Ki [1] was 19.6 nM.

Molecule `CN1CCC[C@H]1COC(=O)Nc1ccc(F)cc1-c1cccc(Cl)c1` [Example 174, (S)-(1-methylpyrrolidin-2-yl)methyl(3′-chloro-5-fluoro-[1,1′-biphenyl]-2-yl)carbamate] has a Ki [1] of 0.61 nM.

— US9828339B2, “Biphenyl derivatives and methods for preparing same” (DONG-A ST CO., LTD, priority 2013, dated 2017)
